From US20190125734A1, “COMPOSITION FOR TREATING OR PREVENTING ATOPIC DERMATITIS” (NANOEGG Research Laboratories, Inc., priority 2016, published 2019)
Entries after “also recorded” stand apart in the source; their conditions may differ.

Legend:
[1] = test system: mice with atopic dermatitis outbreak (NC/Nga, mite antigen Biostir AD); test: Atopic dermatitis score with simultaneous mite antigen induction and test formulation application, Example 5; type: in vivo, mouse; settings: topical 5 times a week for 3 weeks, 12 mM week 1, 24 mM week 2 and thereafter (decamethonium bromide 12 mM, twice a week in last week), induction twice a week
Method: (§1) Induction with mite antigens (twice a week) and application of a test formulation (5 times a week) were simultaneously performed for 3 weeks to analyze the effect of suppressing induction of atopic dermatitis. A test formulation was used at 12 mM in week 1, and at 24 mM in week 2 and thereafter. […] A non treatment group (no induction, no application of test formulation) and solvent applied group (with induction, application of purified water) were prepared as controls.
(1) Antagonist and agonist: hexamethonium bromide, suxamethonium chloride (Maruishi Pharmaceutical), and decamethonium bromide (Tokyo Chemical Industry) were used to compare an antagonist and agonist of a nicotinic acetylcholine receptor. […] (3) Number of tertiary amino groups: Hexamethonium bromide has two tertiary amino groups within the molecule. This was compared to hexyltrimethylammonium bromide (Wako Pure Chemical; hereinafter, referred to as Hexyl-TAB) having one tertiary amino group within the molecule and an alkyl group with 6 carbons. (4) Carbon chain length: Hexamethonium bromide was compared with decamethonium bromide (number of carbons 10) which has a carbon chain length that is longer than hexamethonium bromide (number of carbons 6), and compared with tetramethylammonium bromide (Wako Pure Chemical; number of carbons: 1; hereinafter, referred to as TAB), hexyltrimethylammonium bromide (number of carbons: 6; hereinafter, referred to as Hexyl-TAB), and cetyltrimethylammonium bromide (Wako Pure Chemical; number of carbons: 16; hereinafter, referred to as Cetyl-TAB), which have one tertiary amino group within the molecule and a different carbon chain length in the alkyl group.

[2] = Toxicity observed during application, Example 5; type: in vivo, mouse; settings: topical application to NC/Nga mice, 12 mM week 1
Method: as §1, with “Mice (NC/Nga, 10 week old) were applied with a mite antigen (Biostir AD) twice a week for 4 weeks to prepare mice with atopic dermatitis outbreak as in Example 1. Induction” for “Induction”, “controls. Scoring was performed in the same manner as Example 1.” for “controls.”

[3] = test system: mast cells; test: Activity and migration of mast cells (toluidine blue stain of back skin), Example 2; type: in vivo, mouse; settings: severe area; saline group about 40%
Excerpt: Solifenacin succinate (Tokyo Chemical Industry), acridinium bromide (Wako Pure Chemical) and scopolamine hydrobromide trihydrate (Tokyo Chemical Industry) were used as an inhibitor of a muscarinic acetylcholine receptor. Tubocurarine chloride pentahydrate (Tokyo Chemical Industry), gallamintriethiodide (sigma-aldrich), hexamethonium bromide (sigma-aldrich), dextromethorphan hydrobromide monohydrate (Wako Pure Chemical), and α-bungarotoxin (alomone labs) were used as an inhibitor of a nicotinic acetylcholine receptor. Dimethyl sulfoxide (DMSO, Wako Pure Chemical) saline (Otsuka Pharmaceutical), and purified water were used as solvents.
The back skin of sampled atopic dermatitis model mice was immobilized with neutral formalin and embedded in paraffin. A 4 μm thick tissue segment was prepared therefrom, and mast cells were stained with toluidine blue stain. The stained tissue segment was captured with a microscope. […] The areas of only collagen fiber sites in the tissue segment images were measured (removing areas of the epidermal layer, mast cells, and muscle cells) and compared the mast cell count per unit area to the degree of degranulation.

[4] = test system: skin of atopic dermatitis patients; test: Replica method for goose bump-like skin symptoms, Example 6; type: in vivo, human; settings: 12 mM applied to back part of the neck of atopic dermatitis patients; 5 to 10 minutes after application vs before
Method: Hexamethonium (12 mM) was applied to (back part of) the neck of atopic dermatitis patients to obtain replica images of skin before application and after 5 to 10 minutes from application. The replica images were collected by applying silicon resin (SILFLO) so as to cover the skin with outbreak of atopic dermatitis and peeling of the cured silicon from the skin after 5 minutes. Light was irradiated onto the collected replicas from one direction to compare and examine, and take pictures of, the unevenness of the skin surface.

[5] = test system: atopic dermatitis model mice (NC/Nga, mite antigen Biostir AD); test: Therapeutic effect from oral administration, dermatitis scores, Example 8; type: in vivo, mouse; settings: 150 μL of 60 mM once a day, 5 times a week, total 10 times, day 10
Method: 10 week old NC/Nga mice (Charles River Laboratories Japan) were used as atopic dermatitis model animals. A mite antigen (Biostir AD, Wako Pure Chemical) was used to induce dermatitis. Model mice were prepared and scored according to the method described in the package insert of Biostir AD (same as Example 1).
As an inhibitor of a nicotinic acetylcholine receptor, hexamethonium bromide (hereinafter, hexamethonium; sigma-aldrich) was used. The inhibitor was dissolved in purified water and prepared to have a final concentration of 60 mM. Purified water (DW) was used as a negative control.
150 μL of a test formulation was orally administered to atopic dermatitis induced mice once a day, 5 times a week, for a total of 10 times. Dermatitis scores were evaluated after 0 and 10 days from administration. Mean change from day 0 was compared. Atopic dermatitis was induced with mite antigens only on Mondays every week to maintain the symptom.

[6] = test system: atopic dermatitis model mice (NC/Nga, mite antigen Biostir AD); test: Drug efficacy with dermatitis induction in parallel (AD score, pictures of the back), Example 3; type: in vivo, mouse; settings: male NC/Nga mice, topical 12 mM, days 3, 7, 11
Method: Atopic dermatitis model mice were prepared and scored in the same manner as Example 1. The same test formulations as those in Example 1 were used.
Male NC/Nga mice (Charles River Laboratories Japan) induced to have atopic dermatitis were used. A test formulation was applied to the back once a day, 5 days a week (Monday to Friday), for a total of 10 times. 100 μL of the test formulation was applied to the back, and 25 μL was applied to each of the left and right auricles. The back was shaved prior to administration on Monday and Thursday to evaluate dermatitis scores. Atopic dermatitis was then induced only on Mondays every week to maintain dermatitis. Mice were euthanized after 11 days from the initial administration, and then the skin tissue was sampled.

[7] = test system: atopic dermatitis model mice (NC/Nga, mite antigen Biostir AD); test: Evaluation of drug efficacy after inducing dermatitis (AD score, pictures of the back), Example 1; type: in vivo, mouse; settings: female NC/Nga mice, topical 12 mM, days 3 and 7
Method: 10 week old NC/Nga mice (Charles River Laboratories Japan) were used as atopic dermatitis model animals. A mite (Dermatophagoides farina) antigen, i.e., Biostir AD (Wako Pure Chemical), was used to induce dermatitis. Model mice were prepared by the following procedure.
1. The back of mice was shaved. A hair removal cream was used only for the first time. 2. To destroy the skin barrier, 150 μL of 4% SDS was applied and dried for 2 to 3 hours (this step was omitted for the first time). 3. To stimulate immunity, 100 mg of Biostir AD was applied to the back and the left and right auricles of the mice. 4. These steps were performed twice a week.
Scoring was performed according to the method described in the package insert of Biostir AD. Four endpoints were each evaluated as 0 to 3 points. The total score for the endpoints was used as the AD score. The following Table 1 summarizes the scores for each endpoint.
Acridinium bromide (Wako Pure Chemical) and scopolamine hydrobromide trihydrate (Tokyo Chemical Industry) were used as an inhibitor of a muscarinic acetylcholine receptor. Hexamethonium bromide (sigma-aldrich) and dextromethorphan hydrobromide monohydrate (Wako Pure Chemical) were used as an inhibitor of a nicotinic acetylcholine receptor. Dimethyl sulfoxide (DMSO, Wako Pure Chemical), saline (Otsuka Pharmaceutical), and purified water were used as solvents. […]

Compound | atopic dermatitis score (mean change) relative to solvent administered group (DW) [1] | further results
NCCCCCCN [HMDA, Hexamethylenediamine] | An effect of suppression was not found | 
Tetramethylammonium Bromide [TAB] | effect of suppressing atopic dermatitis | 
C[N+](C)(C)CCCCCCCCCC[N+](C)(C)C [decamethonium bromide, Decamethonium Bromide] | reduce atopic dermatitis scores | toxicity [2]: strong toxicity; atopic dermatitis score (mean change) relative to solvent administered group (DW) ([1]; listed as Decamethonium bromide): action to exacerbate atopic dermatitis was confirmed
COc1cc2c3cc1Oc1cc(ccc1O)C[C@@H]1c4c(cc(OC)c(O)c4Oc4ccc(cc4)C[C@@H]3N(C)CC2)CC[N+]1(C)C [tubocurarine, Tubocurarine chloride pentahydrate] |  | ratio of degranulated mast cells to all mast cells [3]: about 33%
C[N+](C)(C)CCOC(=O)CCC(=O)OCC[N+](C)(C)C [Suxamethonium bromide, suxamethonium chloride] | reduce atopic dermatitis scores | 
CCCCCCCCCCCCCCCC[N+](C)(C)C.[Br-] [Cetyl-TAB, Cetyltrimethylammonium bromide] | exacerbating action | 
C[N+](C)(C)CCCCCC[N+](C)(C)C.[Br-].[Br-] [hexamethonium bromide, Hexamethonium Bromide] | elevation in atopic dermatitis scores was suppressed | degree of protrusion of skin pores (replica images) [4]: degree of protrusion of skin pores has subsided to be less goose bump-like; improvement in dermatitis scores (mean change from day 0) [5]: Improvement in the dermatitis scores was observed; therapeutic effect (AD scores and ΔAD scores) [6]: relative high therapeutic effect; therapeutic effect (AD scores and ΔAD scores) [7]: relatively high therapeutic effect
CCCCCC[N+](C)(C)C.[Br-] [Hexyl-TAB, Hexyltrimethylammonium Bromide] | effect of suppressing atopic dermatitis, although slightly weaker than hexamethonium bromide; also recorded: effect of suppressing atopic dermatitis | 
